Active and inactive are the calls of the source.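 The calls were made as follows: active = AC50 for cell killing below 10 µM, with the signal falling as expected; inactive = the rest, including compounds acting in the opposite direction.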
Tested on: HepG2 viability, ATP luminescence (CellTiter-Glo), 72 h
Assay: HepG2 cell cytotoxicity, dose response, cytotoxicity control, ATP luminescence, dry powder, set 16 (AID 1053139)
Conditions: not given
For CO[C@H]1CN(C)C(=O)c2cc(NC(=O)NC(C)C)ccc2OC[C@H](C)N(Cc2ccc(-c3cncnc3)cc2)C[C@@H]1C, the AC50 was > 100 µM (inactive). In the case of CO[C@H]1CN(C)C(=O)c2cc(NC(=O)NC(C)C)ccc2OC[C@H](C)N(Cc2cncnc2)C[C@@H]1C, the AC50 is reported as > 100 µM (inactive). For CO[C@H]1CN(C)C(=O)c2cc(NC(=O)C(C)C)ccc2OC[C@H](C)N(Cc2ccc(-c3ccccn3)cc2)C[C@@H]1C, the AC50 was > 24 µM (inactive). In the case of CO[C@H]1CN(C)C(=O)c2cc(Nc3c(NC4CC4)c(=O)c3=O)ccc2OC[C@H](C)N(Cc2ccc(-c3ccccn3)cc2)C[C@@H]1C, the AC50 is reported as 38.4 µM.

Tested on: not listed separately
Assay: as above
Conditions: HepG2 viability, ATP luminescence (CellTiter-Glo), 72 h; at 26 µM (top of the series)
For CCCC(=O)Nc1ccc2c(c1)OC[C@H](C)N(Cc1ccc(-c3ccccn3)cc1)C[C@H](C)[C@@H](OC)CN(C)C2=O, the activity change, negative = cytotoxicity was 10.3% (inactive). For CO[C@H]1CN(C)C(=O)c2ccc(NC(=O)NC(C)C)cc2OC[C@H](C)N(Cc2ccc(-c3ccccn3)cc2)C[C@@H]1C, the activity change, negative = cytotoxicity was -5.04% (inactive). With CCCNC(=O)Nc1ccc2c(c1)OC[C@H](C)N(Cc1ccccc1)C[C@H](C)[C@@H](OC)CN(C)C2=O the activity change, negative = cytotoxicity was 11.9% (inactive). In the case of CCCC(=O)Nc1ccc2c(c1)OC[C@H](C)N(Cc1ccccc1)C[C@H](C)[C@@H](OC)CN(C)C2=O, the activity change, negative = cytotoxicity is reported as 6.6% (inactive). For CO[C@H]1CN(C)C(=O)c2ccc(NC(=O)NC(C)C)cc2OC[C@H](C)N(Cc2ccccc2)C[C@@H]1C, the activity change, negative = cytotoxicity was 9.75% (inactive). With CCCNC(=O)Nc1ccc2c(c1)OC[C@H](C)N(Cc1ccc(-c3ccccn3)cc1)C[C@H](C)[C@@H](OC)CN(C)C2=O the activity change, negative = cytotoxicity was -4.61% (inactive).

Same assay, conditions: HepG2 viability, ATP luminescence (CellTiter-Glo), 72 h; at 50 µM (top of the series)
With CO[C@H]1CN(C)C(=O)c2cc(NC(=O)NC(C)C)ccc2OC[C@H](C)N(Cc2ccccn2)C[C@@H]1C the activity change, negative = cytotoxicity was 1.78% (inactive). For CO[C@H]1CN(C)C(=O)c2cc(Nc3c(NC4CCCCC4)c(=O)c3=O)ccc2OC[C@H](C)N(Cc2ccc(-c3ccccn3)cc2)C[C@@H]1C, the activity change, negative = cytotoxicity was -22.3% (inactive). For CO[C@H]1CN(C)C(=O)c2cc(NC(=O)NC(C)C)ccc2OC[C@H](C)N(Cc2ccc(-c3ccccn3)cc2)C[C@@H]1C, the activity change, negative = cytotoxicity was -5.64% (inactive). With CCC(CC)Nc1c(Nc2ccc3c(c2)C(=O)N(C)C[C@H](OC)[C@@H](C)CN(Cc2ccc(-c4ccccn4)cc2)[C@@H](C)CO3)c(=O)c1=O the activity change, negative = cytotoxicity was -1.61% (inactive). In the case of CO[C@H]1CN(C)C(=O)c2cc(NC(=O)NC(C)C)ccc2OC[C@H](C)N(Cc2cccc(F)c2)C[C@@H]1C, the activity change, negative = cytotoxicity is reported as -1.88% (inactive). For CO[C@H]1CN(C)C(=O)c2cc(NC(=O)NC(C)C)ccc2OC[C@H](C)NC[C@@H]1C, the activity change, negative = cytotoxicity was -2.2% (inactive). For CO[C@H]1CN(C)C(=O)c2cc(NC(=O)NC(C)C)ccc2OC[C@H](C)N(Cc2ccc(-c3ccncc3)cc2)C[C@@H]1C, the activity change, negative = cytotoxicity was -12.8% (inactive). With CO[C@H]1CN(C)C(=O)c2cc(NC(=O)NC(C)C)ccc2OC[C@H](C)N(C(=O)c2ccc(-c3ccccn3)cc2)C[C@@H]1C the activity change, negative = cytotoxicity was -10.3% (inactive). With CO[C@H]1CN(C)C(=O)c2cc(NC(=O)NC(C)C)ccc2OC[C@H](C)N(Cc2cccnc2)C[C@@H]1C the activity change, negative = cytotoxicity was 6.28% (inactive). With CO[C@H]1CN(C)C(=O)c2cc(Nc3c(NC(C)C)c(=O)c3=O)ccc2OC[C@H](C)N(Cc2ccc(-c3ccccn3)cc2)C[C@@H]1C the activity change, negative = cytotoxicity was -15.4% (inactive). With CO[C@H]1CN(C)C(=O)c2cc(Nc3ncccn3)ccc2OC[C@H](C)N(Cc2ccc(-c3ccccn3)cc2)C[C@@H]1C the activity change, negative = cytotoxicity was 15.4% (inactive). With CO[C@H]1CN(C)C(=O)c2cc(Nc3c(NC4CCCC4)c(=O)c3=O)ccc2OC[C@H](C)N(Cc2ccc(-c3ccccn3)cc2)C[C@@H]1C the activity change, negative = cytotoxicity was 6.09% (inactive). In the case of CO[C@H]1CN(C)C(=O)c2cc(NC(=O)NC(C)C)ccc2OC[C@H](C)N(C(=O)Nc2ccc(-c3ccccn3)cc2)C[C@@H]1C, the activity change, negative = cytotoxicity is reported as -15% (inactive). In the case of CO[C@H]1CN(C)C(=O)c2cc(NC(=O)NC(C)C)ccc2OC[C@H](C)N(C(=O)c2ccccc2)C[C@@H]1C, the activity change, negative = cytotoxicity is reported as -5.8% (inactive). In the case of CO[C@H]1CN(C)C(=O)c2cc(NC(=O)OC(C)C)ccc2OC[C@H](C)N(Cc2ccc(-c3ccccn3)cc2)C[C@@H]1C, the activity change, negative = cytotoxicity is reported as 12.6% (inactive). In the case of CO[C@H]1CN(C)C(=O)c2cc(NC(=O)NC(C)C)ccc2OC[C@H](C)N(Cc2ccccc2F)C[C@@H]1C, the activity change, negative = cytotoxicity is reported as 12.7% (inactive). In the case of CO[C@H]1CN(C)C(=O)c2cc(NC(=O)NC(C)C)ccc2OC[C@H](C)N(Cc2ccc(-c3cccnc3)cc2)C[C@@H]1C, the activity change, negative = cytotoxicity is reported as 40.3% (inactive). In the case of CO[C@H]1CN(C)C(=O)c2cc(N)ccc2OC[C@H](C)N(Cc2ccc(-c3ccccn3)cc2)C[C@@H]1C, the activity change, negative = cytotoxicity is reported as 19.6% (inactive). With CO[C@H]1CN(C)C(=O)c2cc(NC(=O)NC(C)C)ccc2OC[C@H](C)N(Cc2ccncc2)C[C@@H]1C the activity change, negative = cytotoxicity was -4.57% (inactive). With CO[C@H]1CN(C)C(=O)c2cc(NC(=O)NC(C)C)ccc2OC[C@H](C)N(Cc2ccc(F)cc2)C[C@@H]1C the activity change, negative = cytotoxicity was 0.295% (inactive).

Source: PubChem BioAssay AID1053139 (Broad Institute, 2014)
